Source: PMC4414066 (Journal of medicinal chemistry, 2015)

Key:
[1] = target: T1, hGlyR-α1 (Homo sapiens, UniProt P23415); assay type: cell-based; conditions: for potentiation effect on the channel current (representative traces): 10 μM modulator, glycine EC5, Figure 5a; for potentiation up to the maximum tested concentration: up to 10 μM, glycine EC5
T1 sequence (P23415 29-457): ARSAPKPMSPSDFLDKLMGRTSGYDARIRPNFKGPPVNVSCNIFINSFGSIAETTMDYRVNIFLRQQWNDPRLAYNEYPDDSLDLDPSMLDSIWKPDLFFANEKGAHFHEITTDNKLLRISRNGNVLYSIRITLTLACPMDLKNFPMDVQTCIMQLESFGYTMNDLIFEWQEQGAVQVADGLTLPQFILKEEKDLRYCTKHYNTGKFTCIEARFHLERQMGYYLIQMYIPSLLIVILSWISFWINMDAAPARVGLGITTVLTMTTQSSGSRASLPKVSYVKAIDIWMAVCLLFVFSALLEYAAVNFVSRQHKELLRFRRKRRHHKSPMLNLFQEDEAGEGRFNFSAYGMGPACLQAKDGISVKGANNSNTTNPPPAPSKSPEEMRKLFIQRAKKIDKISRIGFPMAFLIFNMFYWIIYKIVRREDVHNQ

[2] = system: α7nAChR; conditions: previous finding; cited from earlier work

SMILES | potentiation effect on the channel current (representative traces) [1] | potentiation up to the maximum tested concentration [1] | effect on α7nAChR function [2]
Cc1nc2c([nH]1)-c1ccccc1N(C(=O)c1ccc(NC(=O)c3ccccc3-c3ccccc3)cc1)CC2 [Conivaptan] | no potentiation | did not show potentiation | –
COc1cc(OC)c(NC(=O)Nc2cc(C)on2)cc1Cl [PNU-120596] | – | did not show potentiation | –
O=c1[nH]c2ccccc2n1C1CCN(CCCC(c2ccc(F)cc2)c2ccc(F)cc2)CC1 [Pimozide] | much greater potentiation effect on the channel current than THC | – | –
CCCCCc1cc(O)c2c(c1)OC(C)(C)[C@@H]1CCC(C)=C[C@@H]21 [THC, Δ^9-tetrahydrocannabinol] | – | – | little effect
